According to paper PMC11313965, “Bioactive Naphthoquinone and Phenazine Analogs from the Endophytic Streptomyces sp. PH9030 as α-Glucosidase Inhibitors” (Molecules, 2024):
In brackets after ≈: the same amount, converted by molar mass. Where two headings read alike, the source gives them in different places.

How the values were obtained:
α-glucosidase = α-glucosidase (Saccharomyces cerevisiae, UniProt P53341); assay: biochemical; details: read-out: IC50, α-glucosidase inhibitory activity
[1] = tested on: Pseudomonas aeruginosa ATCC 9027; assay: Antibacterial assay, broth dilution MIC; type: cell-based
Procedure: (§1) The MIC values of 5–12 against Staphylococcus aureus ATCC 29213, MRSA, Klebsiella pneumoniae ATCC 13883 and Pseudomonas aeruginosa ATCC 9027 were determined via a broth dilution assay in 96-well plates, with levofloxacin as a control (Table S7).
(§2) The broth dilution method was used to determine the minimum inhibitory concentrations (MICs). The details are described in the Supplementary Materials. […]
(§3) Compounds 5 – 12 were tested for antibacterial activity against Staphylococcus aureus ATCC 29213, methicillin-resistant Staphylococcus aureus (MRSA), Klebsiella pneumoniae ATCC 13883 and Pseudomonas aeruginosa ATCC 9027. The MICs were determined using broth dilution assay. The bacterial strains were cultured overnight and diluted to […] in Luria-Bertani (LB, Table S1) broth. 5 – 12 were dissolved in DMSO, serially diluted to 10 different concentrations (64, 32, 16, 8, 4, 2, 1, 0.5. 0.25, 0.125 μg/mL) using LB broth on the 96 well plate.
(§4) Levofloxacin (Bide Pharmatech Ltd., Shanghai, China) was dissolved in DMSO, serially diluted to 1 0 concentrations (0.125 –64 μg/mL) using LB broth on each 96-well plate. Then 100 μL LB broth containing compounds 5 – 12 or levofloxacin and 100 μL of bacterial solution were mixed per well. The plates were incubated at 37 °C for 18 h. Finally, 50 μL resazurin (Shanghai Macklin Biochemical Technology Co., Ltd., Shanghai, China) was added into each well to visualize the result. […]

[2] = tested on: Klebsiella pneumoniae ATCC 13883; assay: Antibacterial assay, broth dilution MIC; type: cell-based
Procedure: as §1, §2, §3, §4

[3] = tested on: methicillin-resistant Staphylococcus aureus (MRSA); assay: Antibacterial assay, broth dilution MIC; type: cell-based; details: 18 h
Procedure: as §1, §2, §3, §4

[4] = tested on: Staphylococcus aureus ATCC 29213; assay: Antibacterial assay, broth dilution MIC; type: cell-based
Procedure: as §1, §2, §3, §4

[5] = tested on: Staphylococcus aureus ATCC 25923; set-up: method as in PMID 24389824; details: cited from earlier work
[6] = tested on: Staphylococcus epidermidis ATCC 12228; set-up: method as in PMID 24389824; details: cited from earlier work
lung (A549) cancer cells = details: cited from earlier work
[7] = tested on: breast (MDA MB-231) cancer cells; details: cited from earlier work
HeLa S3 cells = tested on: HeLa S3 cells; set-up: method as in PMID 2324009; details: cited from earlier work
Bacillus subrifis = tested on: Bacillus subrifis; set-up: method as in doi:10.1016/0040-4039(93)88010-G; details: cited from earlier work
[8] = ATCC9027, Pseudomonas aeruginosa ATCC 9027, 37 °C, 18 h, read-out: MIC
[9] = ATCC13883, Klebsiella pneumoniae ATCC 13883, 37 °C, 18 h, read-out: MIC
[10] = Staphylococcus aureus, 37 °C, read-out: MIC
[11] = ATCC29213, Staphylococcus aureus ATCC 29213, 37 °C, 18 h, read-out: MIC

Sequence of α-glucosidase (P53341 whole entry): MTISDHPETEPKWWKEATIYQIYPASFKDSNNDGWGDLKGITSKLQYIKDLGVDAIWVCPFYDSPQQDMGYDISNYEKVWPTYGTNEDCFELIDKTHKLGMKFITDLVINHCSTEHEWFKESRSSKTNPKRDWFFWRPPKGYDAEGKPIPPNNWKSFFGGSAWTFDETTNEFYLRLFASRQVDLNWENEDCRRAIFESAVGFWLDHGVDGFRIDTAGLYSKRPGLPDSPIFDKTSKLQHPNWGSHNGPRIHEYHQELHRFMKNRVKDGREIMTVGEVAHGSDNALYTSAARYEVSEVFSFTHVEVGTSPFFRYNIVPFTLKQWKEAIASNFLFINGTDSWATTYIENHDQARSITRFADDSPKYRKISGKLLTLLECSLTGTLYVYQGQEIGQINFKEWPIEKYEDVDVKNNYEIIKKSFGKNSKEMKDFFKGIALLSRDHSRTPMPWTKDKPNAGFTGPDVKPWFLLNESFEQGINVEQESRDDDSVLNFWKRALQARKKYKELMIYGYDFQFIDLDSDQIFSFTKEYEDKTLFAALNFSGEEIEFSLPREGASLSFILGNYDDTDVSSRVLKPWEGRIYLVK

Row | Compound | IC50 (α-glucosidase) [µM] | MIC [1, 8] [µg/mL] | MIC [2, 9] [µg/mL] | MIC [3, 10] [µg/mL] | MIC [4, 11] [µg/mL] | also measured
1 | NC(=O)c1cccc2nc3ccccc3nc12 [Compound 9, phenazine-1-carboxamide] | 105 ± 10.5 | > 64 | > 64 | 16 (≈ 71.7 µM) | 64 (≈ 287 µM) | 
2 | O=C(O)c1cccc2c1Nc1ccccc1N2C(=O)CO [Compound 8, 5-(2-hydroxyacetyl)-5,10-dihydrophenazine-1-carboxylic acid] |  | > 64 | > 64 | > 64 | > 64 | 
3 | Oc1c(Br)ccc2nc3ccccc3nc12 [Compound 3, 2-Bromo-1-hydroxyphenazine] |  |  |  |  |  | MIC [5]: 1.72 µg/mL (≈ 6.25 µM); MIC [6]: 1.72 µg/mL (≈ 6.25 µM)
4 | 5-Methyl phenazine-1-carboxylic acid [Compound 4] |  |  |  |  |  | IC50 (lung (A549) cancer cells): 0.4887 ± 0.00252 µM; IC50 [7]: 0.4586 ± 0.00248 µM
5 | CC1=CC2C3=C(OC(C)(C)C2CC1O)C(=O)c1c(O)cc(O)cc1C3=O (stereo not shown) [Compound 6, 12-Hydroxy-naphthgeranine A] | 116 ± 4.4 |  |  |  |  | MIC ([1]; Pseudomonas aeruginosa ATCC 9027, 37 °C, 18 h): > 64 µg/mL; MIC ([2]; Klebsiella pneumoniae ATCC 13883, 37 °C, 18 h): > 64 µg/mL; MIC ([3]; 37 °C): > 64 µg/mL; MIC ([4]; Staphylococcus aureus ATCC 29213, 37 °C, 18 h): > 64 µg/mL
6 | c1ccc2nc3ccccc3nc2c1 [Compound 12, phenazin] |  |  | > 64 | 16 (≈ 88.8 µM) |  | 
7 | COC(=O)c1cccc2nc3ccccc3nc12 [Compound 11, 1-carbomethoxyphenazine] |  |  | > 64 | > 64 |  | 
8 | CC1(C)OC2=C(C(=O)c3cc(O)cc(O)c3C2=O)[C@@H]2C=C(CO)CC[C@@H]21 [Compound 1, naphthgeranine B] |  |  |  |  |  | IC50, cytotoxic effect (HeLa S3 cells): 1.6 µg/mL (≈ 4.49 µM)
9 | O=C(O)c1cccc2nc3ccccc3nc12 [Compound 10, phenazine-1-carboxylic acid] | > 800 |  |  |  |  | MIC ([1]; Pseudomonas aeruginosa, ATCC9027, 18 h): > 64 µg/mL; MIC ([2]; Klebsiella pneumoniae, ATCC13883, 18 h): > 64 µg/mL; MIC ([3]; Staphylococcus aureus): > 64 µg/mL; MIC ([4]; Staphylococcus aureus, ATCC29213, 18 h): 32 µg/mL (≈ 143 µM)
10 | CC1=CC2C3=C(OC(C)(C)C2CC1O)C(=O)c1c(O)cc(O)cc1C3=O (stereo not shown) [Compound 5, naphthgeranine G] | 66.4 ± 6.7 | > 64 | > 64 | > 64 | > 64 | 
11 | CC(C)=CCC[C@@]1(C)OC2=C(C(=O)c3c(Br)c(O)cc(O)c3C2=O)[C@@H]2C=C(C)CC[C@@H]21 [Compound 2, marinone] |  |  |  |  |  | MIC (Bacillus subrifis): 1 µg/mL (≈ 2.05 µM)
12 | CC1=CC2C3=C(OC(C)(C)C2CC1)C(=O)c1c(O)cc(O)cc1C3=O (stereo not shown) [Compound 7, naphthgeranine A] | 185.9 ± 0.2 | > 64 | > 64 | > 64 | > 64 | 
13 | C[C@H]1COc2c(N3CCN(C)CC3)c(F)cc3c(=O)c(C(=O)O)cn1c23 [LEV, levofloxacin, reference compound] |  | 2 (≈ 5.53 µM) | 1 (≈ 2.77 µM) | 0.5 (≈ 1.38 µM) | 0.25 (≈ 0.692 µM) | 
